pEC50, pKi: −log10 of the molar value.
Legend:
RXRα [1] = target: T1, RXRα (Homo sapiens, UniProt P19793); assay: RXR ligand binding assay
T1 construct: expressed in transfected cells
T1 sequence (P19793 1-462): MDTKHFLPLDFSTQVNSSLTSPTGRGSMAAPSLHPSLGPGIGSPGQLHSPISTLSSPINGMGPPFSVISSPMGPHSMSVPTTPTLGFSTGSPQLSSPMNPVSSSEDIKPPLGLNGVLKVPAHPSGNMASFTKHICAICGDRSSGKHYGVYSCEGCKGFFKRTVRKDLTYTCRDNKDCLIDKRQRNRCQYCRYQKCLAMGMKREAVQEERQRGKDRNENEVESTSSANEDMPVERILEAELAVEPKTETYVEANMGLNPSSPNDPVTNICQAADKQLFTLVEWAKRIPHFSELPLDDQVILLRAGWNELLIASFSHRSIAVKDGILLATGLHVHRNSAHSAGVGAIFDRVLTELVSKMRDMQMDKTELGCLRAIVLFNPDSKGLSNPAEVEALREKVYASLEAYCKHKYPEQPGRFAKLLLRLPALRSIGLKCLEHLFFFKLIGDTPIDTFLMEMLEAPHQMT
From the text: (§1) A holoreceptor transactivation assay and a ligand binding assay which measure the antagonist/agonist like activity of the compounds of the invention, or their ability to bind to the several retinoid receptor subtypes, respectively, are described in published PCT Application No. WO WO93/11755 (particularly on pages 30-33 and 37-41) published on Jun. 24, 1993, the specification of which is also incorporated herein by reference. A detailed experimental procedure for holoreceptor transactivations has been described by Heyman et al. Cell 68, 397-406, (1992); Allegretto et al. J. Biol. Chem. 268, 26625-26633, and Mangelsdorf et al. The Retinoids: Biology, Chemistry and Medicine, pp 319-349, Raven Press Ltd., New York, which are expressly incorporated herein by reference. The results obtained in this assay are expressed in EC50 numbers, as they are also in the, chimeric receptor transactivation assay. The results of the ligand binding assay are expressed in Ki numbers. (See Cheng et al. Biochemical Pharmacology Vol. 22 pp 3099-3108, expressly incorporated herein by reference.)
(§2) In Tables 1 and 2 the binding Ki numbers are indicated in the first 3 columns. In the second set of three columns the numbers in parentheses indicate efficacy as a percentage compared to the standard compound, (2E, 4E, 1′S, 2′S)-3-methyl-5-[2′-methyl-2′-(5,5,8,8-tetramethyl-5,6,7,8-tetrahydro-naphthalen-2-yl)-cyclopropyl]-penta-2,4-dienoic acid and the other numbers indicate the measured EC50 in nanomolar concentration.

RXRβ [2] = target: T2, RXRβ (Homo sapiens, UniProt P28702); assay: RXR ligand binding assay
T2 construct: expressed in transfected cells
T2 sequence (P28702 1-533): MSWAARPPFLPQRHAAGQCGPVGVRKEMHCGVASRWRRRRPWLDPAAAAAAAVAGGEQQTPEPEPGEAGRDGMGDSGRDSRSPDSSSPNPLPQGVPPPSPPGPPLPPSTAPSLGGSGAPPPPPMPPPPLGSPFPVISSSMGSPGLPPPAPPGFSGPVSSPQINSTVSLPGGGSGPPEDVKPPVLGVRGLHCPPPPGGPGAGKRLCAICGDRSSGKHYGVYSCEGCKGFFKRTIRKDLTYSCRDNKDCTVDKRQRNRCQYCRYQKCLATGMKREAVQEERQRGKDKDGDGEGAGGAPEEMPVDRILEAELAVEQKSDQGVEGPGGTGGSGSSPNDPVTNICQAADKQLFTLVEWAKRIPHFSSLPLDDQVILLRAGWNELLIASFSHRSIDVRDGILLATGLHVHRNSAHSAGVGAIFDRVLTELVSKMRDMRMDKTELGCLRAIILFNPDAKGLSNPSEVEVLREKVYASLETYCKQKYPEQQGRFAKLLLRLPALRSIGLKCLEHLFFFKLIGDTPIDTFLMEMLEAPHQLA
From the text: as §1, §2

RXRα [3] = target: T1, RXRα; assay: holoreceptor transactivation assay; assay type: cell-based; conditions: for Transactivation % Efficiency RXRα: efficacy as percentage compared to the standard compound; for pEC50: holoreceptor assay
From the text: as §1
(§3) Efficacy in a transactivation assay is expressed as a percentage of the maximum potency attained by the compound compared to a standard which, in this, case, is the compound named (2E, 4E, 1′S, 2′S)-3-methyl-5-[2′-methyl-2′-(5,5,8,8-tetramethyl-5,6,7,8-tetrahydro-naphthalen-2-yl)-cyclopropyl]-penta-2,4-dienoic acid. This standard compound is described in U.S. Pat. No. 6,114,533.
(§4) Table 1 discloses the activity of certain exemplary tetrahydronaphthale compounds of the invention in the above-described RXR receptor transactivation and binding assays. […] The transactivation data pertaining to the activation of RXR receptors were obtained in the holoreceptor assay.
as §2

RXRγ = target: T3, RXRγ (Homo sapiens, UniProt P48443); assay: holoreceptor transactivation assay; assay type: cell-based; conditions: for Transactivation % Efficiency RXRγ: efficacy as percentage compared to the standard compound; for pEC50: holoreceptor assay
T3 construct: expressed in transfected cells
T3 sequence (P48443 1-463): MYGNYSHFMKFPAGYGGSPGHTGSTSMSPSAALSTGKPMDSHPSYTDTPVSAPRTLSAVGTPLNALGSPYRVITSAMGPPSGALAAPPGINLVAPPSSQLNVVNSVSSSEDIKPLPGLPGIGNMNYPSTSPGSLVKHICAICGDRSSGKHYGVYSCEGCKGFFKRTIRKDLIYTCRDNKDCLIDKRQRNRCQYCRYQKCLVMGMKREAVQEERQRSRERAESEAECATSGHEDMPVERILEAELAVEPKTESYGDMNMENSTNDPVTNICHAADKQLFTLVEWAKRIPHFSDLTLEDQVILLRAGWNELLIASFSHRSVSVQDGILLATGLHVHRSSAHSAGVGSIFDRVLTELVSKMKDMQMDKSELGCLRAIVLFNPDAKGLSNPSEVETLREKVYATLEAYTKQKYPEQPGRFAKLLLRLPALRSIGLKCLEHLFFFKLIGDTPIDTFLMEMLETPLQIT
From the text: as §1, §3, §4, §2

RXRβ [4] = target: T2, RXRβ; assay: holoreceptor transactivation assay; assay type: cell-based; conditions: for Transactivation % Efficiency RXRβ: efficacy as percentage compared to the standard compound; for pEC50: holoreceptor assay
From the text: as §1, §3, §4, §2

[5] = test system: female diabetic db/db mice; assay: serum glucose, triglyceride and thyroxine levels in diabetic db/db mice; assay type: in vivo; conditions: for Glucose / Triglycerides / T4: db/db mice; for T4: Day 7
From the text: An assay described below tests the effect of compounds of the invention on serum glucose, tryglyceride and thyroxine levels in female 9-10 weeks old db/db mice.
Female diabetic db/db (9-10 weeks old) mice were maintained on standard laboratory food and treated by oral gavage with vehicle (corn oil), standard compound (2E, 4E, 1′S, 2S)-3-methyl-5-[2′-methyl-2′-(5,5,8,8-tetramethyl-5,6,7,8-tetrahydro-naphthalen-2-yl)-cyclopropyl]-penta-2,4-dienoic acid ([…]) daily for seven days at 8:00 AM. Blood samples (70 μl) were taken by orbital bleeding at 11:00 AM on day 0 (pre-treatment), day 3, and day 6. On day 7, a blood sample (700 μl) was taken at 11:00 AM and the animals were sacrificed. Glucose, triglyceride and thyroxine (T4) levels were determined on a Boehringer Manheim Hatachi Clinical Chemistry Analyzer using standard protocols provided by the manufacturer and reagents that were supplied in commercially available kits (glucose and T4: Boehringer Manheim; triglycerides: Roche Diagnostics). Seven animals were treated in each group.

[6] = Day 0 (pre-treatment), 50 mg/kg oral gavage daily
[7] = Day 3, 3 h, 50 mg/kg oral gavage daily
[8] = Day 6, 3 h, 50 mg/kg oral gavage daily
[9] = Day 0 (pre-treatment), 4 mg/kg oral gavage daily
[10] = Day 3, 3 h, 4 mg/kg oral gavage daily
[11] = Day 6, 3 h, 4 mg/kg oral gavage daily

SMILES | pKi (RXRα [1]) | pKi (RXRβ [2]) | Transactivation % Efficiency RXRα (RXRα [3]) [%] | pEC50 (RXRα [3]) | Transactivation % Efficiency RXRγ (RXRγ) [%] | pEC50 (RXRγ) | Transactivation % Efficiency RXRβ (RXRβ [4]) [%] | pEC50 (RXRβ [4]) | other results
COC[C@H]1[C@@H](/C=C/C(C)=C/C(=O)O)[C@@]1(C)c1ccc2c(c1)C(C)(C)CCC2(C)C (stereo in doubt) [Compound 21a, (−)-(1R, 2S, 3 S)-5-[3-Methoxymethyl-2-methyl-2-(5,5,8,8-tetramethyl-5,6,7,8-tetrahydro-naphthalen-2-yl)-cyclopropyl]-3-methyl-penta-2E,4E-dienoic acid] | 8.30 | 7.32 | 39 | 8.40 | 41 | 8.22 | 38 | 7.44 | Glucose [5, 6]: 445 ± 66 mg/dL; Triglycerides [5, 6]: 271 ± 80 mg/dL; Glucose [5, 7]: 339 ± 194 mg/dL; Triglycerides [5, 7]: 130 ± 71 mg/dL; Glucose [5, 8]: 314 ± 196 mg/dL; Triglycerides [5, 8]: 180 ± 63 mg/dL; T4 ([5]; 50 mg/kg oral gavage daily): 4.2 ± 0.3 µg/dL
CCOC[C@H]1[C@@H](/C=C/C(C)=C/C(=O)O)C1(C)c1ccc2c(c1)C(C)(C)CCC2(C)C (stereo in doubt) [Compound 21b, (−)-(1R, 2S, 3S)-5-[3-Ethoxymethyl-2-methyl-2-(5,5,8,8-tetramethyl-5,6,7,8-tetrahydro-naphthalen-2-yl)-cyclopropyl]-3-methyl-penta-2E,4E-dienoic acid] | 7.77 | 6.64 | 41 | 7.55 | 34 | 7.36 | – | < 6.00 | –
CCOC[C@@H]1[C@@H](/C=C/C(C)=C/C(=O)O)C1(C)c1ccc2c(c1)C(C)(C)CCC2(C)C (stereo in doubt) [Compound 23b, (−)-(1R, 2S, 3R)-5-[3-Ethoxymethyl-2-methyl-2-(5,5,8,8-tetramethyl-5,6,7,8-tetrahydro-naphthalen-2-yl)-cyclopropyl]-3-methyl-penta-2E,4E-dienoic acid] | 7.57 | 6.92 | – | – | – | – | – | – | –
COCC1[C@@H](/C=C/C(C)=C/C(=O)O)C1(C)c1cc(C(C)C)cc(C(C)C)c1 (stereo in doubt) [Compound 29, (−)-(1R, 2S, 3S)-5-[3-Methoxymethyl-2-methyl-2-(3,5-diisopropyl-phenyl)-cyclopropyl]-3-methyl-penta-2E,4E-dienoic acid] | 7.96 | 7.31 | 24 | 8.30 | 35 | 7.80 | 34 | 7.33 | –
CC(/C=C/[C@@H]1C[C@]1(C)c1ccc2c(c1)C(C)(C)CCC2(C)C)=C\C(=O)O [Standard compound, (2E, 4E, 1′S, 2′S)-3-methyl-5-[2′-methyl-2′-(5,5,8,8-tetramethyl-5,6,7,8-tetrahydro-naphthalen-2-yl)-cyclopropyl]-penta-2,4-dienoic acid] | – | – | – | – | – | – | – | – | Glucose [5, 9]: 423 ± 57 mg/dL; Triglycerides [5, 9]: 300 ± 76 mg/dL; Glucose [5, 10]: 315 ± 105 mg/dL; Triglycerides [5, 10]: 219 ± 80 mg/dL; Glucose [5, 11]: 268 ± 242 mg/dL; Triglycerides [5, 11]: 117 ± 22 mg/dL; T4 ([5]; 4 mg/kg oral gavage daily): 1.1 ± 0.2 µg/dL; effect on serum thyroxine levels (in words) ([5]; diabetic mammals): undesirable side effect of reducing serum thyroxine levels

Second part, led by results:

pKi (RXRα [1]) | pKi (RXRβ [2]) | Transactivation % Efficiency RXRα (RXRα [3]) [%] | pEC50 (RXRα [3]) | Transactivation % Efficiency RXRγ (RXRγ) [%] | pEC50 (RXRγ) | Transactivation % Efficiency RXRβ (RXRβ [4]) [%] | pEC50 (RXRβ [4]) | SMILES | other results
7.74 | 6.73 | 9 | 7.57 | 9 | 7.22 | 9 | 6.26 | COC[C@@H]1[C@@H](/C=C/C(C)=C/C(=O)O)C1(C)c1ccc2c(c1)C(C)(C)CCC2(C)C (stereo in doubt) [Compound 23a, (−)-(1R, 2S, 3R)-5-[3-Methoxymethyl-2-methyl-2-(5,5,8,8-tetramethyl-5,6,7,8-tetrahydro-naphthalen-2-yl)-cyclopropyl]-3-methyl-penta-2E,4E-dienoic acid] | –
8.12 | 7.60 | 104 | 8.57 | 101 | 8.44 | 90 | 7.77 | COCC1[C@@H](/C=C/C(C)=C/C(=O)O)C1(C)c1cc(C(C)C)cc(C(C)C)c1 (stereo in doubt) [Compound 31a, (−)-(1R, 2S, 3R)-5-[3-Methoxymethyl-2-methyl-2-(3,5-diisopropyl-phenyl)-cyclopropyl]-3-methyl-penta-2E,4E-dienoic acid] | –

From patent US6936636B2, “5-[phenyl-tetrahydronaphthalene-2-yl dihydronaphthalen-2-yl and heteroaryl-cyclopropyl]-pentadienoic acid derivatives having serum glucose reducing activity” (Allergan, Inc., priority 2003, dated 2005)
